From PubChem BioAssay (NCI)
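The compound was tested at five concentrations on cells cultured in 96-well plates, with a 48-hour exposure period. TGI: concentration producing complete growth inhibition.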

Tests used:
Assay in all cases: NCI anticancer screen, dose series, 48 h
SK-OV-3 ovarian = test system: SK-OV-3 ovarian
RXF 393 renal = test system: RXF 393 renal
OVCAR-8 ovarian = test system: OVCAR-8 ovarian
MOLT-4 leukemia = test system: MOLT-4 leukemia
786-0 renal = test system: 786-0 renal
M14 melanoma = test system: M14 melanoma
ACHN renal = test system: ACHN renal
UO-31 renal = test system: UO-31 renal
SF-268 CNS = test system: SF-268 CNS
HCT-116 colon = test system: HCT-116 colon
MDA-MB-231 breast = test system: MDA-MB-231 breast
UACC-257 melanoma = test system: UACC-257 melanoma
MALME-3M melanoma = test system: MALME-3M melanoma
NCI-H460 lung = test system: NCI-H460 lung
K-562 leukemia = test system: K-562 leukemia
NCI-H226 lung = test system: NCI-H226 lung
MDA-MB-435 = test system: MDA-MB-435
IGROV1 ovarian = test system: IGROV1 ovarian
NCI/ADR-RES ovarian = test system: NCI/ADR-RES ovarian
HOP-62 NSCLC = test system: HOP-62 NSCLC
MCF7 breast = test system: MCF7 breast
OVCAR-3 ovarian = test system: OVCAR-3 ovarian
SNB-75 CNS = test system: SNB-75 CNS
SK-MEL-2 melanoma = test system: SK-MEL-2 melanoma
TK-10 renal = test system: TK-10 renal
HCT-15 colon = test system: HCT-15 colon
SR leukemia = test system: SR leukemia
NCI-H23 lung = test system: NCI-H23 lung
SW-620 colon = test system: SW-620 colon
NCI-H522 lung = test system: NCI-H522 lung
SNB-19 CNS = test system: SNB-19 CNS
UACC-62 melanoma = test system: UACC-62 melanoma
SK-MEL-5 melanoma = test system: SK-MEL-5 melanoma
DU-145 prostate = test system: DU-145 prostate
SF-295 CNS = test system: SF-295 CNS
BT-549 breast = test system: BT-549 breast
COLO 205 colon = test system: COLO 205 colon
LOX IMVI melanoma = test system: LOX IMVI melanoma
HT29 colon = test system: HT29 colon
T-47D breast = test system: T-47D breast
RPMI-8226 leukemia = test system: RPMI-8226 leukemia
U251 CNS = test system: U251 CNS
OVCAR-5 ovarian = test system: OVCAR-5 ovarian
EKVX NSCLC = test system: EKVX NSCLC
SK-MEL-28 melanoma = test system: SK-MEL-28 melanoma
SN12C renal = test system: SN12C renal
HS 578T breast = test system: HS 578T breast
PC-3 prostate = test system: PC-3 prostate
A549 NSCLC = test system: A549 NSCLC
OVCAR-4 ovarian = test system: OVCAR-4 ovarian
MDA-N = test system: MDA-N

Q: Which results are given for `COc1ccc(C(OCC2OC(n3ccc(NC(=O)c4ccccc4)nc3=O)CC2OP2(=S)SCCS2)(c2ccccc2)c2ccc(OC)cc2)cc1` (stereo unspecified)?
A: TGI (SK-OV-3 ovarian): 64.2 µM; TGI (RXF 393 renal): 88.1 µM; TGI (OVCAR-8 ovarian): 63.2 µM; TGI (MOLT-4 leukemia): > 100 µM; TGI (786-0 renal): 82 µM; TGI (M14 melanoma): 66.2 µM; TGI (ACHN renal): 61.5 µM; TGI (UO-31 renal): > 100 µM; TGI (SF-268 CNS): 44.1 µM; TGI (HCT-116 colon): > 100 µM; TGI (MDA-MB-231 breast): > 100 µM; TGI (UACC-257 melanoma): > 100 µM; TGI (MALME-3M melanoma): 70.2 µM; TGI (NCI-H460 lung): > 100 µM; TGI (K-562 leukemia): > 100 µM; TGI (NCI-H226 lung): 67.4 µM; TGI (MDA-MB-435): > 100 µM; TGI (IGROV1 ovarian): > 100 µM; TGI (NCI/ADR-RES ovarian): > 10 µM; TGI (HOP-62 NSCLC): 43.9 µM; TGI (MCF7 breast): > 100 µM; TGI (OVCAR-3 ovarian): 58.5 µM; TGI (SNB-75 CNS): 46.6 µM; TGI (SK-MEL-2 melanoma): > 100 µM; TGI (TK-10 renal): > 100 µM; TGI (HCT-15 colon): > 100 µM; TGI (SR leukemia): > 100 µM; TGI (NCI-H23 lung): > 100 µM; TGI (SW-620 colon): 44 µM; TGI (NCI-H522 lung): 53 µM; TGI (SNB-19 CNS): 86.4 µM; TGI (UACC-62 melanoma): 34.9 µM; TGI (SK-MEL-5 melanoma): 43.9 µM; TGI (DU-145 prostate): > 100 µM; TGI (SF-295 CNS): 97.9 µM; TGI (BT-549 breast): 53.6 µM; TGI (COLO 205 colon): > 10 µM; TGI (LOX IMVI melanoma): 33.1 µM; TGI (HT29 colon): 69.7 µM; TGI (T-47D breast): > 100 µM; TGI (RPMI-8226 leukemia): > 100 µM; TGI (U251 CNS): 86.5 µM; TGI (OVCAR-5 ovarian): 94.6 µM; TGI (EKVX NSCLC): > 100 µM; TGI (SK-MEL-28 melanoma): 90.3 µM; TGI (SN12C renal): 58.6 µM; TGI (HS 578T breast): 76.3 µM; TGI (PC-3 prostate): 41.5 µM; TGI (A549 NSCLC): > 100 µM; TGI (OVCAR-4 ovarian): 68.6 µM; TGI (MDA-N): > 10 µM
